# No end group written: not given here. *: point of attachment. For = O=C*
# What was measured:
# KG1a cells [1] = assay: ROS production by flow cytometry, KG1a cells; format: cell-based, human; settings: 72 h; for ROS production (MFI): 2D culture on HS5 stromal cells; for ROS production (mean fluorescence intensity): monoculture
# Procedure: (§1) A panel of human myeloid leukemia cell lines (HL60, K562, KG1a, THP1 and U937) and HS-5 mesenchymal stromal cells lineage were cultured in Roswell Park Memorial Institute medium-1640 (RPMI; Sigma) containing 10% Fetal Bovine Serum (Gibco), glutamine (2 mM; Sigma), penicillin (100 μg/mL; Sigma), streptomycin (100 μg/mL; Sigma), and amphotericin B (0.25 μg/mL; Gibco). The cells were maintained in a humidified atmosphere at 37° C. and 5% CO2 and the experiments were performed when they reached exponential growth. For the assays, cells were seeded on a 24-well plate and treated or not with Foxy-5 for 72 hours.
# Cells treated with Foxy or with vehicle were collected and intracellular ROS generation was measured by flow cytometry following staining with DCFDA ([…]; Sigma). Acquisition of cells was performed on a FACScalibur flow cytometer (BD) and analysis was carried out using the FlowJo software.
# Leukemia cell lines were treated for 72 h with Foxy-5, at doses of 50 and 100 μM, or vehicle, stained with DCFHA dye, and analyzed by flow cytometry.
# U937 cells = assay: Cell growth assay, U937 cells; format: cell-based, human; settings: Foxy-5 100 μM, 72 h
# Procedure: as §1
# (§2) Cells treated with Foxy or with vehicle were collected and cell number was evaluated by manual counting in monoculture and by microscopy with Image J software analysis in 2D culture.
# (§3) Next, we evaluated the proliferation rates since this process is modulated by ROS. We treated the cells with Foxy-5 (100 μM) or with vehicle (DMSO) during 72 hours, and then cell growth was analyzed by counting the cells in monoculture, manually, or by the Image J software analysis of the 2D cultures. […] Similar results were obtained in the 2D culture system using leukemia cells and HS-5 mesenchymal stromal cells.
# HL60 cells = assay: Cell growth assay, HL60 cells; format: cell-based, human; settings: Foxy-5 100 μM, 72 h
# Procedure: as §1, §2, §3
# K562 cells = assay: Cell growth assay, K562 cells; format: cell-based, human; settings: Foxy-5 100 μM, 72 h
# Procedure: as §1, §2, §3
# KG1a cells [2] = assay: Cell cycle assay, KG1a cells; format: cell-based, human; settings: 72 h
# Procedure: as §1
# Cells treated with Foxy or with vehicle were collected and fixed, at least, 24 hours in 70% ethanol. DNA was stained with a buffer containing iodide propidium (20 μg/mL; Sigma) and RNase A (10 μg/mL; Sigma). Cell fluorescence was detected with a FACSCalibur flow cytometer (BD). The proportions of cells in the cell cycle phases were analyzed by Modifit (Verify Software House Inc), according to DNA distributions.
# As we observed a reduction in the leukemic proliferation after Foxy-5 treatment, we also analyzed the cell cycle phases. Leukemia cell lines were treated for 72 hours with Foxy-5, at doses of 50 μM and 100 μM, or vehicle, stained with the Piper buffer containing RNAse and iodeto propidium and then analyzed by flow cytometry.
# PI3K and MAPK pathways = assay: Western blot of PI3K and MAPK pathway proteins, U937 cells; format: cell-based, human; settings: U937, Foxy-5 50 μM or 100 μM, 72 h
# Procedure: Equal amounts of protein were resolved by sodium dodecyl sulphate-polyacrylamide gel electrophoresis and transferred onto nitrocellulose membranes (Millipore). Detection was carried out with the chemiluminescent substrate using an ECL Plus (GE-Healthcare). Monoclonal antibodies against P70S6K (sc-8418) and polyclonal antibodies against Actin (sc-1616), AKT1/2/3 (sc-8312), BAX (sc-493), BCL-XL (sc-8392), GAPDH (sc-32,233), p-AKT1/2/3 (sc-33,437) and p-P70S6K (sc-7984) were purchased from Santa Cruz Biotechnology. ERK1/2 ([pT185/Y187]; 44-680G) and ERK1/2 (44-654G) from Invitrogen. Quantitative blots were carried out using the UN-SCAN-IT densitometer software.
# Based on the above results, the activity of proteins of PI3K and MAPK pathways were then investigated in a western blot. Briefly, U937 and K562 cells were seeded and treated with Foxy-5 (50 μM or 100 μM) or vehicle for 72 hours. Then, equal amounts of protein were used for total extracts followed by electrophoresis on 12% SDS polyacrylamide gels under reducing conditions, transferred to nitrocellulose membranes, blocked with 10% skimmed milk in TBS-0.1% Tween for 1 hour, stained with appropriate primary and secondary antibodies. The membranes were visualized with chemiluminescence using an ECL Plus (GE-Healthcare). Quantitative analyses of the optical intensities of the protein bands were determined with Un-Scan-It Gel 6.1 (Silk Scientific Inc.).
# THP1 cells = assay: Actin polymerization assay, THP1 cells; format: cell-based, human; settings: THP1, Foxy-5 100 μM 72 h
# Procedure: F-actin polymerization was analyzed in treated leukemic cell lines using AlexaFluor 633-labeled phalloidin (A22284, Invitrogen) before and after CXCL12 stimulation. The cells were stimulated with CXCL12 (300 ng/ml; Peprotech) in serum-free media at 37 °C for 30 and 120 seconds. The reaction was stopped by adding 3 volumes of paraformaldehyde (3.7%) at room temperature for 10 min, then washed and permeabilized on ice. Cells were stained with 633-phalloidin (2 mg/mL). Flow cytometric data were analyzed using a FACS flow cytometer (BD) followed by FlowJo software analysis. The F-actin content obtained were normalized calculating the ratio between each stimulated cells-mean fluorescence intensity (MFI) values and the nonstimulated cells MFI from the basal levels of the control cells and expressed as fold change.
# Therefore, we performed a flow cytometry analysis to evaluate whether Foxy-5 treatment would be able to disrupt actin polymerization. Leukemia cell lines were treated with Foxy-5 (100 μM) or vehicle during 72 hours, stimulated with CXCL12 (300 ng/ml) for 30 or 120 seconds, and stained with […] for detection of actin polymerization by flow cytometry. […] Thus, a significant reduction of actin polymerization was shown after Foxy-5 treatment when compared to untreated cells after 30 seconds of CXCL12 induction (P<. 001).
# [3] = NOD/SCID mice, U937 xenograft, Foxy-5 vs vehicle, after 9 days
# Procedure: For the xenograft mouse model, a concentration of 40 μg/μL of Foxy-5 was used. […] Mice were anesthetized with isoflurane (4%) and U937 cells (5,000,000 cells/mouse) were inoculated in the mouse dorsal region by subcutaneous injection. When the tumours reached 100 mm^3, the treatment was initiated. Foxy-5 was administered once every 2 days by intraperitoneal injection. The control group received equal amounts of vehicle solution. The tumour volumes were measured every 2 days and evaluated according to the formula: tumour volume (mm^3) ¼ (length×width^2)/2. After 9 days, the mice were sacrificed, the tumour excised and tumour dimensions (tumour volume (mm^3) and tumour weight (grams, g)) were evaluated.
substance,measurement,setting,value
Foxy-5: Formylated hexapeptide fragment of WNT5A: MDGCEL (SEQ. ID. NO. 3) with methionine in position 1 as N-formyl methionine; WNT5A-mimicking compound (For-MDGCEL; listed as Homo sapiens),ROS production (MFI),KG1a cells [1]; Foxy-5 50 μM,75.03 (range 75.03-77.70) MFI
same,ROS production (MFI),KG1a cells [1]; Foxy-5 100 μM,69.00 (range 68.00-72.00) MFI
same,ROS production (mean fluorescence intensity),KG1a cells [1]; Foxy-5 50 μM,36.30 (range 35.80-36.80) MFI
same,ROS production (mean fluorescence intensity),KG1a cells [1]; Foxy-5 100 μM,29.72 (range 28.10-31.33) MFI
same,reduced cell growth compared to vehicle treated cells,"U937 cells; U937, 2D culture with HS-5 stromal cells",1.72 fold decrease
same,reduced cell growth compared to vehicle treated cells,"U937 cells; U937, monoculture",1.75 fold decrease
same,reduced cell growth compared to vehicle treated cells,"HL60 cells; HL60, 2D culture with HS-5 stromal cells",1.56 fold decrease
same,reduced cell growth compared to vehicle treated cells,"HL60 cells; HL60, monoculture",1.22 fold decrease
same,reduced cell growth compared to vehicle treated cells,"K562 cells; K562, 2D culture with HS-5 stromal cells",1.79 fold decrease
same,reduced cell growth compared to vehicle treated cells,"K562 cells; K562, monoculture",3.12 fold decrease
same,cells in G0/G1 cell cycle phase (average),"KG1a cells [2]; co-cultured with HS5 stromal cells, Foxy-5 50 μM",78.58%
same,cells in G0/G1 cell cycle phase (average),"KG1a cells [2]; co-cultured with HS5 stromal cells, Foxy-5 100 μM",76.53%
same,cells in G0/G1 cell cycle phase (average),"KG1a cells [2]; monoculture, Foxy-5 50 μM",69.95%
same,cells in G0/G1 cell cycle phase (average),"KG1a cells [2]; monoculture, Foxy-5 100 μM",73.79%
same,phosphorylation level of AKT compared to vehicle-treated cells,PI3K and MAPK pathways,lower phosphorylation levels
same,phosphorylation level of ERK compared to vehicle-treated cells,PI3K and MAPK pathways,lower phosphorylation levels
same,protein level of cyclin D1 compared to vehicle-treated cells,PI3K and MAPK pathways,reduced protein level
same,F-actin content following CXCL12 stimulation,THP1 cells; CXCL12 300 ng/ml for 30 seconds,3.56 fold increase
same,F-actin content following CXCL12 stimulation,THP1 cells; CXCL12 300 ng/ml for 120 seconds,1.59 fold
same,body weights of the xenograft mice,[3],did not vary significantly
